Data on eight molecules can be found in ChEMBL document CHEMBL1201862, “PubChem BioAssay data set” (2004).

Each structure is given as a SMILES string. Activity calls are given as the source filed them.

The nature of assay [1]: AlphaScreen signal interference compounds, dose response, artefact control for ARNT-TACC3 interaction inhibitor project, biochemical, luminescence, cherry-pick (AID 651705).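 Note: AlphaScreen bead proximity signal that flags compounds interfering with the detection technology; potency reflects signal decrease which marks the compound as an assay artifact.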 In kind it is functional. (Alpha assays give light when donor and acceptor beads are brought close together.)
For assay [2], the target named is T1, Sentrin-specific protease 7 (Homo sapiens, UniProt Q9BQF6).
T1 sequence (Q9BQF6 whole entry): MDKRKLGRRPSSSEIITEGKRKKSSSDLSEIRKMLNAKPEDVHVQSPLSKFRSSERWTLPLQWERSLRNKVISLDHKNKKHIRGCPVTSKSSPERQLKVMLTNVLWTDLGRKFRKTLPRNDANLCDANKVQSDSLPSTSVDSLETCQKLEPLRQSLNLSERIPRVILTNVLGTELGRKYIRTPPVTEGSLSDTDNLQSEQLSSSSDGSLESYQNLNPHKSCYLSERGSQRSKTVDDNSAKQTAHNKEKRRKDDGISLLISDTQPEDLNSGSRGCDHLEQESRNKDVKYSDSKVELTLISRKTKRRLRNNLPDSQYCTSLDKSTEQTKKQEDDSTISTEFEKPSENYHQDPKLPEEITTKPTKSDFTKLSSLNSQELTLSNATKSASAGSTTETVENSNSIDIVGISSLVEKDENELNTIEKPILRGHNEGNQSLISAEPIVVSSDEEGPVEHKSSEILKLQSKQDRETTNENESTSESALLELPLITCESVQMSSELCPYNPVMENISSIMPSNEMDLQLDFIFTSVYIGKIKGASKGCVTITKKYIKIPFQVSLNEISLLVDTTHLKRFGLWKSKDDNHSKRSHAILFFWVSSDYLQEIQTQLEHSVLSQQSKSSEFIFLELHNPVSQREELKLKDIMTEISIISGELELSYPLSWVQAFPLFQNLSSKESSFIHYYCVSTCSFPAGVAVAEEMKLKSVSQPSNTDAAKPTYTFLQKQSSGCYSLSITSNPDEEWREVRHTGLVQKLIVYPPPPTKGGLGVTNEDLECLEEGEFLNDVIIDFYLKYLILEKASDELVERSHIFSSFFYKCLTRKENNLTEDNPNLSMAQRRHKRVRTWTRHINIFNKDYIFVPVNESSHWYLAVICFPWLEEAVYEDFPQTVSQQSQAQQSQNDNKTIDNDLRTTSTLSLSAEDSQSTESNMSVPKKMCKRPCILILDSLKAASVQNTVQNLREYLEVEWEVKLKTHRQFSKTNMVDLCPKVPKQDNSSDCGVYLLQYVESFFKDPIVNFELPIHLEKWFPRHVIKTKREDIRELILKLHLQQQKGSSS
The assay is described as follows: SENP7 protease inhibitors, SAR follow-up, biochemical, luminescence (AID 504497). In kind it is functional.

Assay [3] deals with T2, Sentrin-specific protease 6 (Homo sapiens, UniProt Q9GZR1).
T2 sequence (Q9GZR1 whole entry): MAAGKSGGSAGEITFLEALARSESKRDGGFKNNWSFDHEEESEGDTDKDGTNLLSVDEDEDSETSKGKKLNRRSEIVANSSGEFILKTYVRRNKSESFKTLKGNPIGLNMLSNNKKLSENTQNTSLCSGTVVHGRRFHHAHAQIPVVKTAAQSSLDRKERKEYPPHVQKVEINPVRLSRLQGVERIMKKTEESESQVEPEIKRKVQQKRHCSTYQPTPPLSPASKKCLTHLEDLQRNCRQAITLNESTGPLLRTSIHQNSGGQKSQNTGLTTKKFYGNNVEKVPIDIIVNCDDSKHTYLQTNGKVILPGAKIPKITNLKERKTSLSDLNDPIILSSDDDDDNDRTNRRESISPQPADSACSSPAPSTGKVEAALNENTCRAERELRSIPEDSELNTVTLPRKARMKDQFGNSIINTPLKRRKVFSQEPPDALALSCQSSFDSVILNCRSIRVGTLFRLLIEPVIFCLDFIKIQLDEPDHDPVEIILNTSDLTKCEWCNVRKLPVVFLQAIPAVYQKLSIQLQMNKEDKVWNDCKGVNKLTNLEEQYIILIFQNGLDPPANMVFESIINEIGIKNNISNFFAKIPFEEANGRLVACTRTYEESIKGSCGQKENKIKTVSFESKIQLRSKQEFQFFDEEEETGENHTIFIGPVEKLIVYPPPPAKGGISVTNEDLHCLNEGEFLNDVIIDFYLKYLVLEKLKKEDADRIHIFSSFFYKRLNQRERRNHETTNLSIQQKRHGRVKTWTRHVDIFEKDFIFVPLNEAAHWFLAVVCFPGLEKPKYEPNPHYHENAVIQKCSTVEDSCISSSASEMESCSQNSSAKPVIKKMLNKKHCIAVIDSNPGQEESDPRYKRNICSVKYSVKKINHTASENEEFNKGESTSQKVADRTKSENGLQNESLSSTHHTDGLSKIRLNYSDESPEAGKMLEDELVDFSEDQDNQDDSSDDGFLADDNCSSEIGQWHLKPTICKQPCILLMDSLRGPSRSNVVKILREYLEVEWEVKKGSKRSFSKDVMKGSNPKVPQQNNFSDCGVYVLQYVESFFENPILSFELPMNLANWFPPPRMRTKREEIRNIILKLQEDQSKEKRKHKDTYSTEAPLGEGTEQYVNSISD
The assay is described as follows: SAR Analysis of small molecule inhibitors of Sentrin-specific protease 6 (SENP6) using a Luminescent assay. [Related pubchem assays (depositor defined):AID2582, AID2599]. In kind it is functional.

The target in assay [4] is T1, Sentrin-specific protease 7. In kind it is functional.
The target in assay [5] is T3, Oxysterols receptor LXR-beta (Homo sapiens, UniProt P55055).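 Note: agonist activity at LXR measured by a cell-based luminescence readout across a dose range, run as a counterscreen for daf-12 agonists; HEK293 cells with Gal4-LXR fusion and GAL4-driven luciferase reporter; potency for activation of Gal4-LXR reporter so compounds are agonists.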
T3 sequence (P55055 whole entry): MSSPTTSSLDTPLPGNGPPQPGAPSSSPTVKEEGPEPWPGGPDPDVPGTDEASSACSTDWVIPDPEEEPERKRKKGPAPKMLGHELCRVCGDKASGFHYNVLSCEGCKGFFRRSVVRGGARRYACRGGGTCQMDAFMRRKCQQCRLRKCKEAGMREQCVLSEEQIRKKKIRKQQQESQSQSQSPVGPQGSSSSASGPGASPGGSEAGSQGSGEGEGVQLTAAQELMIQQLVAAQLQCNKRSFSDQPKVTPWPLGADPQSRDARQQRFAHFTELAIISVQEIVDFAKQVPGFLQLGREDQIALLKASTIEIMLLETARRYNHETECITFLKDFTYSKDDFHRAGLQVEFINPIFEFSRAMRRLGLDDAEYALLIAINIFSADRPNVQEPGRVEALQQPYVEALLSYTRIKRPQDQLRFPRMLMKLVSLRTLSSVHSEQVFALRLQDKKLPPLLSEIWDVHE
In kind it is functional, cell-based.

In assay [6] the target is T4, Caspase-3 (Homo sapiens, UniProt P42574).
T4 sequence (P42574 whole entry): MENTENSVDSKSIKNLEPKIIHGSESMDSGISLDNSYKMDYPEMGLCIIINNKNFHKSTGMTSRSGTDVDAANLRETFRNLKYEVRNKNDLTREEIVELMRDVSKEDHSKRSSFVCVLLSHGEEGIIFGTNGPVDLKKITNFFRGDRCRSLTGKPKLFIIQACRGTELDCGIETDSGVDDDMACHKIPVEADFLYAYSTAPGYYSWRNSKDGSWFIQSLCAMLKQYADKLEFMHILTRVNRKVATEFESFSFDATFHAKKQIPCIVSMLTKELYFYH
Briefly: SAR Analysis of small molecule inhibitors of Sentrin-specific proteases (SENPs) using a Caspase-3 Selectivity assay. [Related pubchem assays (depositor defined):AID2540, AID2599, AID434973, AID489001]. Format: functional.

In assay [7] the target is T2, Sentrin-specific protease 6. Format: functional.
Assay [8] deals with T5, Sentrin-specific protease 8 (Homo sapiens, UniProt Q96LD8).
T5 sequence (Q96LD8 whole entry): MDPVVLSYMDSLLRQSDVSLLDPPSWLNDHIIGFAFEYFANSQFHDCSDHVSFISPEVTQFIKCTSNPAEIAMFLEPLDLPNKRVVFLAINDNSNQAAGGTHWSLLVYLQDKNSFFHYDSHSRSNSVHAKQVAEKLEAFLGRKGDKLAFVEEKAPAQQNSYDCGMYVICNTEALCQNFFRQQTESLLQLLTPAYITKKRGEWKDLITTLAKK
In kind it is functional.

The target in assay [9] is T5, Sentrin-specific protease 8. The assay is described as follows: SENP8 protease inhibitors, SAR follow-up, biochemical, luminescence (AID 504501). Format: functional.
The target in assay [10] is T4, Caspase-3. In kind it is functional.
For assay [11], the target named is T6, High affinity choline transporter 1 (Homo sapiens, UniProt Q9GZV3).
T6 sequence (Q9GZV3 whole entry): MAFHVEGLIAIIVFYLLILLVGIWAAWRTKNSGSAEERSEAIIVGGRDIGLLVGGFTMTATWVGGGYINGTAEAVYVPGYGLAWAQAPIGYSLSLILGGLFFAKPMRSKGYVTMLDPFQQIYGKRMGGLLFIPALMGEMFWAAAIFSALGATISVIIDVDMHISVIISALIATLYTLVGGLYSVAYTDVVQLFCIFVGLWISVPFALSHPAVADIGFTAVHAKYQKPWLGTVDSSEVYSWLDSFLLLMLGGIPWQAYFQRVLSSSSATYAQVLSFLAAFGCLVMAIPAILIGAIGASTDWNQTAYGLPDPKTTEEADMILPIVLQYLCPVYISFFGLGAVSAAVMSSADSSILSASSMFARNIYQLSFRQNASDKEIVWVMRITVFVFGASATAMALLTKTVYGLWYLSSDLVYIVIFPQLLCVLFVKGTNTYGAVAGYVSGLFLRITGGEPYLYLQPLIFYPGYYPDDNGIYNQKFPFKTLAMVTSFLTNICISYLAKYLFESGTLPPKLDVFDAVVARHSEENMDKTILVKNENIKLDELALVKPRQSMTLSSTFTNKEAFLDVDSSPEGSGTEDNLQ
Briefly: CHT inhibitors, dose response, cell-based, 10-point CRC, membrane potential dye (AID 588401).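 Note: membrane potential dye fluorescence of choline-evoked depolarization via CHT.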 In kind it is functional.

In assay [12] the target is T6, High affinity choline transporter 1. Briefly: inhibitors of CHT choline uptake, dose response, cell-based, 3H-choline uptake, CHT LV-AA trafficking mutant, CRC (AID 602208). Format: functional.
The target is the same in assay [13]. The assay is described as follows: CHT inhibitors, dose response, cell-based, 5-point CRC, membrane potential dye (AID 504840). Format: functional.
The target of assay [14] is Adenosylmethionine-8-amino-7-oxononanoate aminotransferase (Mycobacterium tuberculosis, UniProt P9WQ81). Briefly: Mycobacterium tuberculosis BioA enzyme inhibitor Measured in Biochemical System Using Plate Reader - 2163-02_Inhibitor_Dose_CherryPick_Activity. Format: functional, Mycobacterium tuberculosis UT205.
Adenosylmethionine-8-amino-7-oxononanoate aminotransferase, sequence (P9WQ81 whole entry): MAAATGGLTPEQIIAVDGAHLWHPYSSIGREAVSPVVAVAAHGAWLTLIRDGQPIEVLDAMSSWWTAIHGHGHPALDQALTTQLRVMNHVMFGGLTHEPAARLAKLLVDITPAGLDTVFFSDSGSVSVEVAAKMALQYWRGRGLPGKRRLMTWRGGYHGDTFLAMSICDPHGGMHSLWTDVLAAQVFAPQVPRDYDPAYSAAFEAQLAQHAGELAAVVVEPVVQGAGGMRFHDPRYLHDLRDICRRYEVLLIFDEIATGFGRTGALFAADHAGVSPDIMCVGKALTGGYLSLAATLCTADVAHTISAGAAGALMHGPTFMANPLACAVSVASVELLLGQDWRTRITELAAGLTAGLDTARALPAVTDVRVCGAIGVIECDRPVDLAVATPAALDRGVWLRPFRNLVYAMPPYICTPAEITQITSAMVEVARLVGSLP
Assay [15] concerns the target Ras and Rab interactor 1/Tyrosine-protein kinase ABL1 (Homo sapiens, UniProt P00519+Q13671). Format: functional.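 Note: biochemical TR-FRET dose-response test measuring inhibition of binding between Rin1 and Abl proteins.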
Assay [16] concerns the target T7, Interleukin-8 (Homo sapiens, UniProt P10145). The assay is described as follows: Dose Response confirmation of uHTS small molecule hits for cystic fibrosis induced NFkb Inhibitors in a TNFa-induced IL8 counterscreen. Format: functional. The note with it: read-out: IC50_Mean. In general terms: A counterscreen serves to expose hits that act by an unwanted route or on another target.

Assay [17] has as its target T7, Interleukin-8. Briefly: Dose Response confirmation of uHTS small molecule hits for cystic fibrosis induced NFkb Inhibitors in a PAF-induced IL8 counterscreen. In kind it is functional. The settings on record: read-out: IC50_Mean.
Assay [18] deals with Cyclin-dependent kinase 19 (Homo sapiens, UniProt Q9BWU1). The assay is described as follows: Navigating the Kinome. Panel member name: CDC2L6. Format: functional.
Cyclin-dependent kinase 19, sequence (Q9BWU1 whole entry): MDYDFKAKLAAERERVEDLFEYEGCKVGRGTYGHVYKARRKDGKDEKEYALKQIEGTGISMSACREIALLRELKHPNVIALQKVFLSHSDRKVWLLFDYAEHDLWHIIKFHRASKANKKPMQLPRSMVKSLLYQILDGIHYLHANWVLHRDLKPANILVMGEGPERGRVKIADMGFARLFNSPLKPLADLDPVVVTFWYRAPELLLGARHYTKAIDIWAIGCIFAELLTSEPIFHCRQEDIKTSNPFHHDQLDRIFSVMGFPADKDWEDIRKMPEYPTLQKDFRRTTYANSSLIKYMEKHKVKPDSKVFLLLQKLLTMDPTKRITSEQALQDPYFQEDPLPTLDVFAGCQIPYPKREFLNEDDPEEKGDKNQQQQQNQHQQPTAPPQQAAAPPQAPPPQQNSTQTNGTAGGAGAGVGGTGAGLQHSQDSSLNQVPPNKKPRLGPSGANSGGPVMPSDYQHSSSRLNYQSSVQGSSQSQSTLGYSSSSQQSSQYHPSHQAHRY
Another assay concerns the target Aurora kinase A (Homo sapiens, UniProt O14965). In kind it is functional.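 Note: value from the Navigating the Kinome kinase panel profiling, panel entry STK6.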
In assay [19] the target is T8, Mitochondrial peptide methionine sulfoxide reductase (Bos taurus, UniProt P54149).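 Note: absorbance read-out, biochemical high-throughput dose-response screen for MsrA inhibitors, confirmatory; recombinant bovine MsrA coupled to E. coli TrxB with NADPH and selenocystamine; potency is for inhibitors of MsrA activity on DMSO substrate.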
T8 sequence (P54149 whole entry): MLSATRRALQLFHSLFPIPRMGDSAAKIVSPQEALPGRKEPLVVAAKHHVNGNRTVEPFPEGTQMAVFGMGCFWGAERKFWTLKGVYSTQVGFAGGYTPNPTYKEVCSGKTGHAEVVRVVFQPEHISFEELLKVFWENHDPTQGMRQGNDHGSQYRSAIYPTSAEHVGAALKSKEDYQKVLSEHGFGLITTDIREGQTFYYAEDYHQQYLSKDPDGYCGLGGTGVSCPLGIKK
In kind it is functional.

T7 sequence (P10145 whole entry): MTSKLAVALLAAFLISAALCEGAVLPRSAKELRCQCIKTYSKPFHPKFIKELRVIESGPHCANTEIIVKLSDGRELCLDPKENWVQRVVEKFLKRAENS
Ras and Rab interactor 1/Tyrosine-protein kinase ABL1, sequence (P00519 whole entry): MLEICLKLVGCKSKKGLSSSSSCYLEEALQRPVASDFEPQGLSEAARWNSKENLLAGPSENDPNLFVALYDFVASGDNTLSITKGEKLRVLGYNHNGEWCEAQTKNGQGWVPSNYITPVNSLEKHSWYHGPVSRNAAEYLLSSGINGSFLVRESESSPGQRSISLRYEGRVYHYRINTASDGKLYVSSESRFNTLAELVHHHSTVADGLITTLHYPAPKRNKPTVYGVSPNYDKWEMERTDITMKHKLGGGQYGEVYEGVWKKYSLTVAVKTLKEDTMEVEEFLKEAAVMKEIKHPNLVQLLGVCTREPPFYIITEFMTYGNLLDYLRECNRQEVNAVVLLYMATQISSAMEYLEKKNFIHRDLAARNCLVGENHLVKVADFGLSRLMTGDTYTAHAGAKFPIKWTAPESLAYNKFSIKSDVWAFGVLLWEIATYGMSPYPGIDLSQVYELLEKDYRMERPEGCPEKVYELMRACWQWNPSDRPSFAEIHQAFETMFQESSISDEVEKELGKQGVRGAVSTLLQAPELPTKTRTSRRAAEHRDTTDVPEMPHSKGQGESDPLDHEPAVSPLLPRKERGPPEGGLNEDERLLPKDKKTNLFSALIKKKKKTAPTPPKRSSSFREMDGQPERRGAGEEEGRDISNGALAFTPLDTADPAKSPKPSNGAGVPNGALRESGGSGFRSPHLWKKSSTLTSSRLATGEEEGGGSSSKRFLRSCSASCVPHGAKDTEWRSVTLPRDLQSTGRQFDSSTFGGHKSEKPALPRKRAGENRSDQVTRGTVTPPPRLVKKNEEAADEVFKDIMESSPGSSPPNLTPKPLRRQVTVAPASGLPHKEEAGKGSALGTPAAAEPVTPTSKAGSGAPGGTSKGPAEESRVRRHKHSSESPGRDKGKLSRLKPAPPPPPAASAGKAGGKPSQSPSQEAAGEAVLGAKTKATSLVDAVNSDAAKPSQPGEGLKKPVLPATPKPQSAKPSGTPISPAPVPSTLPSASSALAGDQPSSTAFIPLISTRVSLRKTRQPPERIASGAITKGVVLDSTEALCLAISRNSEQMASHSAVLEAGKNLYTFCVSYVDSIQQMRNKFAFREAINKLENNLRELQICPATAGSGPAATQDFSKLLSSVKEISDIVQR
Ras and Rab interactor 1/Tyrosine-protein kinase ABL1, sequence (Q13671 whole entry): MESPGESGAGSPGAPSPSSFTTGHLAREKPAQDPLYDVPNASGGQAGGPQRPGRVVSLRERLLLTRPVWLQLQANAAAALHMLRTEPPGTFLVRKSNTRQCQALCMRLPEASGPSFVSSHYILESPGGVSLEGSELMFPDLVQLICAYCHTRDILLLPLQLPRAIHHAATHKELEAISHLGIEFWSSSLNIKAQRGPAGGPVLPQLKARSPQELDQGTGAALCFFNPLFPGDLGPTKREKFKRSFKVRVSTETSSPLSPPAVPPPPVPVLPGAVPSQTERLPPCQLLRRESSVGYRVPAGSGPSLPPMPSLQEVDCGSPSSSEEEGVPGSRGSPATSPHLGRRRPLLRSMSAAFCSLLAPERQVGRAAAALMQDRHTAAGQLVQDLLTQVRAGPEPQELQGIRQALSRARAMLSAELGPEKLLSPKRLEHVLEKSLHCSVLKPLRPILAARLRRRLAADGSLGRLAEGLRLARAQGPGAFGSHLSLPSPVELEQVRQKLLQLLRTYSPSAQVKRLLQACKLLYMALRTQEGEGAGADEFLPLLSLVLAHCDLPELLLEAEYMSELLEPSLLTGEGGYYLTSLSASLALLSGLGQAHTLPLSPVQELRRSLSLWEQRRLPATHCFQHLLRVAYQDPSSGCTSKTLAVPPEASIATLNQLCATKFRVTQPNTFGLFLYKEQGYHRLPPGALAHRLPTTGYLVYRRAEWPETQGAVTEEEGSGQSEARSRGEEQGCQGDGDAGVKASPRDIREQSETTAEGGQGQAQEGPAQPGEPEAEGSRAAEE
Aurora kinase A, sequence (O14965 whole entry): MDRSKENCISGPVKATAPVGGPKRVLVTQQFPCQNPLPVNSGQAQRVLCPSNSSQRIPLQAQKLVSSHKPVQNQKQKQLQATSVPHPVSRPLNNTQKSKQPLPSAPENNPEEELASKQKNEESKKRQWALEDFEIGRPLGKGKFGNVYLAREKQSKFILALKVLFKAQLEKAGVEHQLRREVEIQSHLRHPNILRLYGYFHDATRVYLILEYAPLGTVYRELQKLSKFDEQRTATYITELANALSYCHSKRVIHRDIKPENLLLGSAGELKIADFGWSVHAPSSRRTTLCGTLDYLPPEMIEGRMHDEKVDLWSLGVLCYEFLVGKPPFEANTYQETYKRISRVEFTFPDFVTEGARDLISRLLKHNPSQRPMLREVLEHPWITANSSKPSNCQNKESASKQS

As for `O=C(Oc1cccc2cccnc12)c1ccco1`, the AC50 in [1] is 131 µM (active).
As to `c1ccc(Nc2nc(-c3ccccc3)ns2)cc1`, the IC50 is 1.7 µM (active) in assay [2]; 1.9 µM (active) in assay [3]; 2.1 µM (active) in assay [4]; 7.8 µM (active) at Caspase-3 [6]; 2.19 µM (active) in assay [7]; 2.41 µM (active) in [8]. In addition, the IC50 in [9] is 2.5 µM (active); at Caspase-3 [10], 18.8 µM (active). Also, the EC50 in assay [5] was > 67.6 µM (inactive).
Take `CC1CCC(NC(=O)c2cccc(S(=O)(=O)NCc3ccccc3)c2)CC1` (stereo not given): the IC50 is 3.64 µM (active) in [11], 8.42 µM (active) in [12] and 4.07 µM (active) in [13].
As to `COc1ccc(-c2ccc3c(c2)C2CC3CCN2)cc1` (stereo not given), the half-maximal activity concentration (AC50) in assay [14] was 1.07 µM (active).
Consider `CC(C)(C)OC(=O)N1CCC(C(=O)Nc2ccc(C(=O)N3CCCCC3)cc2)CC1`, for which, in [15], the IC50 is 21.9 µM (inactive).
Regarding `CNc1ccc2ncc(-c3cccc(C(=O)N(C)C)c3)n2n1`, the results for the IC50 at Interleukin-8 [16] and at Interleukin-8 [17] were > 79 µM (inactive) and 2.04 µM (active), respectively.
With `Cc1ccc(C)c(NC(=O)Nc2ccc(-c3c(C)sc4ncnc(N)c34)cc2)c1`, the values for the Ki (in assay [18]; at Aurora kinase A) were > 100 µM (inactive) and 0.251 µM (active), respectively.
As for `O=C(O)c1cccc(N/N=C/c2sc(N3CCOCC3)nc2-c2ccccc2)c1`, the IC50 in assay [19] is 155 µM (inactive).

In general, AC50 refers to the midpoint of the concentration-response curve, whichever way the signal moves. For orientation: EC50 means the concentration giving half of the maximal effect. The term Ki denotes a measure of affinity in units of concentration, obtained from inhibition or displacement.
